Source: PubChem BioAssay (NCI)
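Where inhibition never reached the appropriate level, the endpoint shown equals the highest concentration tested. Otherwise, values were interpolated linearly from a five-concentration, 48-hour dose response in 96-well plates. GI50 marks 50% less growth. TGI marks complete inhibition of growth.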

Experiments:
Assay in all cases: inhibition of tumour cell growth, NCI panel, 48 h
[1] = tested on: COLO 205 colon
[2] = tested on: EKVX NSCLC
[3] = tested on: HCT-15 colon
[4] = tested on: IGROV1 ovarian
[5] = tested on: NCI-H522 lung
[6] = tested on: OVCAR-3 ovarian
[7] = tested on: OVCAR-4 ovarian
[8] = tested on: SF-295 CNS
[9] = tested on: BT-549 breast
[10] = tested on: MCF7 breast

| Structure (SMILES) | GI50 [1] [µM] | TGI [1] [µM] | GI50 [2] [µM] | TGI [2] [µM] | GI50 [3] [µM] | TGI [3] [µM] | GI50 [4] [µM] | TGI [4] [µM] | GI50 [5] [µM] | TGI [5] [µM] | GI50 [6] [µM] | TGI [6] [µM] | GI50 [7] [µM] | TGI [7] [µM] | GI50 [8] [µM] | TGI [8] [µM] | GI50 [9] [µM] | TGI [9] [µM] | GI50 [10] [µM] | TGI [10] [µM] |
| --- | --- | --- | --- | --- | --- | --- | --- | --- | --- | --- | --- | --- | --- | --- | --- | --- | --- | --- | --- | --- |
| O=S(=O)(O)O.[NH-]C1CCCCC1[NH-].[Pt+2] (centres undefined) | > 100 | > 100 | > 100 | > 100 | 61.5 | > 100 | > 100 | > 100 | 23.6 | > 100 | > 100 | > 100 | 67.2 | > 100 | > 100 | > 100 |  |  |  |  |
| COc1cc2nc(-c3cnc(N(C)C)nc3)nc(NC3CCN(Cc4ccccc4)CC3)c2cc1OC | 0.637 | 2.09 | 1.75 | 3.66 | 1.01 | 2.39 | 1.73 | 3.43 |  |  | 1.69 | 3.27 |  |  | 1.54 | 2.97 | 1.71 | 3.43 |  |  |
| O=S1c2ccccc2N=C(c2ccc3ccccc3c2)CC1C1=CC=CCC1 (centres undefined) |  | 37.9 |  | 42.8 |  | 35.7 |  | 28.9 |  | 33.2 |  | 31.8 |  |  |  | 39.6 |  |  |  |  |
| Cc1cc(NS(=O)(=O)c2ccc(N=Nc3cc(N=Nc4ccc(S(=O)(=O)Nc5cc(C)nc(C)n5)cc4)c4c(NC(=O)C(Cl)Cl)cccc4c3OC(=O)C(Cl)Cl)cc2)nc(C)n1 (tested in a mixture with another compound) |  | 74.9 |  | 53.5 |  | 31.7 |  | 53.2 |  | 38.5 |  | 33 |  | 43.7 |  | 77.6 |  |  |  |  |
| Cc1c(Cl)ccc2c1NC(=O)C2(O)C(C(=O)c1ccccc1)c1ccccc1 (centres undefined) |  | > 100 |  | > 100 |  | > 100 |  | > 100 |  | 93.7 |  |  |  | 28.7 |  | 92.6 |  |  |  |  |
| Cc1ccc(NC(=O)C(=O)C2C(=O)N(c3ccccc3)N=C2N)cc1C (centres undefined) |  | > 100 |  | > 100 |  | > 100 |  | > 100 |  | > 100 |  | > 100 |  | > 100 |  | > 100 |  |  |  |  |
| Cc1[nH]c2ccccc2c1C1Cc2ccccc2N1C(=O)/C=C/C=C/c1ccccc1 (centres undefined) |  | > 100 |  | > 100 |  | > 100 |  | > 100 |  | > 100 |  | > 100 |  | > 100 |  | > 100 |  |  |  |  |
| Oc1ccc(-c2nnc3sc(-c4ccc(F)c(Oc5ccccc5)c4)nn23)cc1 | 96 | > 100 | 34.8 | > 100 | 91.2 | > 100 | 47.4 | > 100 | 72.5 | > 100 | 28.8 | 76.4 | > 100 | > 100 | 23.2 | 59.9 |  |  | 14.6 | > 100 |
| COc1ccc2nc(-c3cc(-c4cc(OC)c(OC)c(OC)c4)n[nH]3)[nH]c2c1 | 1.61 | 3.24 |  |  | 2.5 | 10.7 | 1.9 | 7.11 | 1.21 | 3.98 | 2.05 | 6.18 | 1.24 | 4.81 | 1.62 | 5.24 | 0.899 | 3.31 | 2.15 | 6.66 |
